Legend:
[1] = Determination of the logP values by HPLC on reversed-phase column (C 18); assay type: physicochemical
Experimental: Determination of the logP values:
The lambda max values were determined in the maxima of the chromatographic signals using the UV spectra from 190 nm to 400 nm.

[2] = test system: Lucilia cuprina larvae; assay: Lucilia cuprina - test (larvae); assay type: in vivo; conditions: in Ovis aries, read-out: activity (mortality in %)
Experimental: (§1) Solvent: dimethyl sulfoxide
(§2) To produce a suitable preparation of active compound, 10 mg of active compound are dissolved in 0.5 ml solvent, and the concentrate is diluted with water to the desired concentration.
Approximately 20 -30 (Lucilia cuprina larvae) are transferred into a test tube containing 1cm^3 of minced horse meat and 0.5 ml aqueous dilution of test compound.
After the specified period of time, mortality in % is determined. 100 % means that all the larvae have been killed; 0 % means that none of the larvae have been killed.

[3] = test system: Musca domestica; assay: Musca domestica - test; assay type: in vivo; conditions: adults; for mortality at 100 ppm: application rate of 100ppm; for mortality at 20 ppm: application rate of 20ppm
Experimental: as §1, §2
Prior to the assay, a piece or kitchen sponge is soaked with a mixture of sugar and compound solution and placed into a container. 10 adults (Musca domestica) are placed into the container and closed with a perforated lid.
After the specified period of time, mortality in % is determined. 100 % means that all the flies have been killed; 0 % means that none of the flies have been killed.

[4] = test system: Boophilus microplus; assay: Boophilus microplus - test (injection into adult ticks); assay type: in vivo; conditions: application rate of 20 µg/animal; injected into the abdomen of adult ticks; seven days
Experimental: Boophilus microplus - test Solvent: dimethylsulfoxide To produce a suitable preparation of active compound, 1 part by weight of active compound is mixed with the stated amount of solvent, and the concentrate is diluted with containing solvent to the desired concentration. Adult ticks (Boophilus microplus) are treated by injected with compound solution of the desired concentration into the abdomen. Ticks are transferred into replica plates and incubated in a climate chamber for seven days. Eggs which are not clearly fertile or infertile are further incubated for another 35 days until larvae hatch from the untreated controls. After the specified period of time, the laying of fertile eggs in % is determined. 100 % means that all eggs have been fertile; 0 % means that none of the eggs have been fertile.

[5] = 0.001 m aqueous nh4hco3/acetonitrile, HPLC, reversed-phase C 18, 40 °C, [c] 0.001 molar aqueous NH4HCO3 solution and acetonitrile at pH 7.8, linear gradient from 10 % to 95 % acetonitrile (v/v)
[6] = 0.1% aqueous phosphoric acid/acetonitrile, HPLC, reversed-phase C 18, 40 °C, [a] 0.1% aqueous phosphoric acid and acetonitrile at pH 2.3, linear gradient from 10 to 95 % (v/v) acetonitrile
[7] = 0.001 m aqueous nh4hco3/acetonitrile, method [c]: 0.001 molar aqueous NH4HCO3 solution and acetonitrile at pH 7.8, linear gradient from 10 % to 95 % acetonitrile (v/v), HPLC reversed-phase C 18, 40 °C
[8] = 0.1% aqueous phosphoric acid/acetonitrile, method [a]: 0.1% aqueous phosphoric acid and acetonitrile at pH 2.3, linear gradient from 10 to 95 % (v/v) acetonitrile, HPLC reversed-phase C 18, 40 °C

Row | SMILES | chromatographic logP [1, 5] | chromatographic logP [1, 6] | mortality at 100 ppm [2] [%] | mortality at 100 ppm [3] [%] | activity (laying of fertile eggs in %) [4] [%] | chromatographic logP [1, 7] | chromatographic logP [1, 8] | mortality at 20 ppm [3] [%]
1 | CSC[C@H](C)NC(=O)c1c(I)cccc1C(=O)Nc1ccc(C(C(F)F)C(F)(F)F)cc1Br (stereo partly drawn) [Compound 227] | 3.54 | 3.51 | ≥ 80 | ≥ 80 | ≥ 80 | – | – | –
2 | CCSC[C@H](C)NC(=O)c1c(I)cccc1C(=O)Nc1ccc(C(C(F)F)C(F)(F)F)cc1Cl (stereo partly drawn) [Compound 235] | 3.79 | 3.76 | ≥ 80 | ≥ 80 | ≥ 80 | – | – | –
3 | CCSC[C@H](C)NC(=O)c1c(I)cccc1C(=O)Nc1ccc(C(C(F)F)C(F)(F)F)cc1Br (stereo partly drawn) [Compound 243] | 3.8 | 3.78 | ≥ 80 | ≥ 80 | ≥ 80 | – | – | –
4 | CCS(=O)(=O)C[C@H](C)NC(=O)c1c(I)cccc1C(=O)Nc1ccc(C(F)(C(F)F)C(F)(F)F)cc1Cl (stereo partly drawn) [Compound 251] | 3.18 | 3.12 | ≥ 80 | ≥ 80 | ≥ 80 | – | – | –
5 | C[C@@H](CS(C)(=O)=O)NC(=O)c1c(I)cccc1C(=O)Nc1ccc(C(C(F)F)C(F)(F)F)cc1F (stereo partly drawn) [Compound 291] | 2.54 | 2.5 | ≥ 80 | ≥ 80 | ≥ 80 | – | – | –
6 | CCS(=O)(=O)C[C@H](C)NC(=O)c1c(I)cccc1C(=O)Nc1ccc(C(C(F)F)C(F)(F)F)cc1Br (stereo partly drawn) [Compound 299] | 2.92 | 2.87 | ≥ 80 | ≥ 80 | ≥ 80 | – | – | –
7 | CCS(=O)(=O)C[C@H](C)NC(=O)c1c(I)cccc1C(=O)Nc1ccc(C(C(F)F)C(F)(F)F)cc1F (stereo partly drawn) [Compound 315] | 2.69 | 2.65 | ≥ 80 | ≥ 80 | ≥ 80 | – | – | –
8 | Cc1c(NC(=O)c2cccc(I)c2C(=O)N[C@@H](C)C[S+](C)[O-])ccc(C(F)(F)C(F)(F)F)c1F (stereo partly drawn) [Compound 323] | – | 2.5 | ≥ 80 | ≥ 80 | ≥ 80 | – | – | –
9 | Cc1c(NC(=O)c2cccc(Cl)c2C(=O)N[C@@H](C)CS(C)(=O)=O)ccc(C(F)(F)C(F)(F)F)c1F [Compound 363] | – | 2.82 | ≥ 80 | ≥ 80 | ≥ 80 | – | – | –
10 | Cc1cc(C(F)(C(F)F)C(F)(F)F)ccc1NC(=O)c1cccc(Cl)c1C(=O)N[C@@H](C)CS(C)(=O)=O (stereo partly drawn) [Compound 371] | – | – | ≥ 80 | ≥ 80 | ≥ 80 | 2.64 | 2.61 | –
11 | CCS(=O)(=O)C[C@H](C)NC(=O)c1c(Cl)cccc1C(=O)Nc1ccc(C(F)(F)C(F)(F)F)c(F)c1C [Compound 372] | – | – | ≥ 80 | – | ≥ 80 | – | 3.01 | ≥ 80
12 | CSC[C@H](C)NC(=O)c1c(Br)cccc1C(=O)Nc1ccc(C(F)(C(F)(F)F)C(F)(F)F)c(F)c1C [Compound 398] | – | – | ≥ 80 | ≥ 80 | ≥ 80 | – | 4.31 | –
13 | Cc1c(NC(=O)c2cccc(Cl)c2C(=O)N[C@@H](C)C[S+](C)[O-])ccc(C(C(F)(F)F)C(F)(F)F)c1F (stereo partly drawn) [Compound 406] | – | – | ≥ 80 | ≥ 80 | ≥ 80 | 2.41 | 2.5 | –
14 | Cc1cc(C(C(F)(F)F)C(F)(F)F)c(F)cc1NC(=O)c1cccc(Cl)c1C(=O)N[C@@H](C)C[S+](C)[O-] (stereo partly drawn) [Compound 414] | – | – | ≥ 80 | ≥ 80 | ≥ 80 | 2.51 | 2.58 | –
15 | CSC[C@H](C)NC(=O)c1c(I)cccc1C(=O)Nc1ccc(C(F)(C(F)(F)F)C(F)(F)F)c(F)c1C [Compound 423] | – | – | ≥ 80 | ≥ 80 | ≥ 80 | – | 4.41 | –
16 | CCS(=O)(=O)C[C@H](C)NC(=O)c1c(Br)cccc1C(=O)Nc1ccc(C(C)(F)C(F)F)cc1Br (stereo partly drawn) [Compound 424] | – | – | ≥ 80 | ≥ 80 | ≥ 80 | – | 3.06 | ≥ 80

Source: patent publication EP2022493A1, “Composition comprising at least one optically active phthalamide derivative for controlling animal parasites” (Bayer CropScience AG, priority 2007, dated 2009)
